Source: patent publication US6653135B1, “Dynamic protein signature assay” (University of Maryland, priority 2000, dated 2003)

Experiments:
[1] = system: Mytilus edulis; test: Protein expression signature by 2D electrophoresis of whole body homogenate after 7 day exposure
Protocol: Protein expression signatures, including those proteins induced and those proteins suppressed by exposure, were isolated for each treatment group.
Eight blue mussels Mytilus edulis 2-3 cm in size were collected from a natural population 3M deep. Ambient salinity and temperature were a salinity of 6.3 ppt and a temperature of 7° C. The mussels were put in tanks for acclimation for 24 hours at the same temperature and salinity as collection. […] Water was changed every other day and continuously aerated. At the end of the 7 day exposure, mussels were removed from the shell and flash frozen in liquid nitrogen before being freeze dried for later analysis.
Freeze dried whole body tissue was mechanically homogenized in cold buffer containing phenyl-methylsulfonyl fluoride and dithiothreotol (PMSF and DTT, protease inhibitors) and tris buffer pH 5.5. After mechanical homogenization, samples were boiled to further break down cells, and cellular debris was removed by centrifugation (13000×g for 5 min). Total protein concentration was determined using methods based on the Bradford method (Biorad).
The supernatant containing the soluble protein fraction was separated using two dimensional electrophoresis (Biorad Miniprotean II™). […] Gels from each treatment were compared for changes in pattern and key components using Medical Electrophoresis Analysis Interactive Expert System (MELANIE II™) 2D analysis software (Biorad) and data compiled using a database developed by this laboratory. Composite gels were produced from each treatment set and compared to one another. Proteins uniquely present (induced (expressed)) or absent (suppressed) in each treatment were identified. Those present or absent in all the original component gels were included in the protein expression signature (PES) for each treatment.

[2] = system: Mytilus edulis gill tissue; test: Protein expression changes in gill tissue by 2D electrophoresis after 24 h exposure
Protocol: Gill tissue previously flash frozen in liquid nitrogen was mechanically homogenized in cold buffer containing phenyl-methylsulfonyl fluoride and dithiothreotol (PMSF and DTT, protease inhibitors). Cellular debris was removed by centrifugation (13000×g for 5 min). Total protein concentration of the supernatant containing the soluble protein fraction was determined using the Bradford method.
Spots on each gel were detected and compared using Medical Electrophoresis Analysis Interactive Expert System (MELANIE II™) 2D analysis software (Biorad). […] Those spots detectable on the treatment composites only were considered present. Each spot of interest, present or absent, on the treatment composites was identified on all original gels from a treatment group before being considered part of the protein expression signature.

[3] = 7 days exposure, 70 ppb copper, 1 ppb Aroclor 1248, whole body
[4] = signature proteins also found with 70 ppb copper combined with lowered salinity (3 ppt), 7 days
[5] = 20, 40, 60, 80 ppb CuSO4, 24 hrs

SMILES	Proteins of the signature identified in organisms treated with copper and lowered salinity simultaneously ([1]; 70 ppb copper plus salinity 3 ppt, 7 days)	Protein expression signature (induced and suppressed), number of proteins ([1]; 7 days exposure, 70 ppb copper, 1 ppb Aroclor 1248) [proteins]	Unique Induction: number of proteins specifically induced (present) [1, 3] [proteins]	Unique Suppression: number of proteins specifically suppressed (absent) [1, 3] [proteins]	Copper/Salinity shared signal, induced proteins [1, 4] [proteins]	Copper/Salinity shared signal, suppressed proteins [1, 4] [proteins]	Protein spots absent at all treatment levels compared to controls [2, 5] [spots]	Protein spots present at all treatment levels compared to controls [2, 5] [protein spots]	Key Protein Changes (number of key proteins present and absent specifically) ([2]; 20 ppb CuSO4, 24 hrs, gill tissue)	Number of proteins specifically absent at a single dosage level ([2]; 20 ppb, 24 hrs) [protein spots]	Key Protein Changes (number of key proteins present and absent specifically) ([2]; 40 ppb CuSO4, 24 hrs, gill tissue)	Key Protein Changes (number of key proteins present and absent specifically) ([2]; 60 ppb CuSO4, 24 hrs, gill tissue)	Key Protein Changes (number of key proteins present and absent specifically) ([2]; 80 ppb CuSO4, 24 hrs, gill tissue)	Number of proteins specifically absent at a single dosage level ([2]; 80 ppb, 24 hrs) [protein spots]	Key Protein Changes (number of key proteins present and absent) ([2]; All Dosages (20, 40, 60, 80 ppb CuSO4), 24 hrs, gill tissue)
[Cu] [Copper, copper]	Five	23	13	10	3	2	–	–	–	–	–	–	–	–	–
O=S(=O)([O-])[O-].[Cu+2] [CuSO4, copper sulfate]	–	–	–	–	–	–	2	11	27	14	14	19	10	6	13
